This note sets out measurements from patent US5004756A, “Anti-cancer activity potentiator” (priority 1988, dated 1991).

By IC50 is commonly meant the concentration that gives 50% inhibition.

Molecules are shown by their SMILES. Converted amounts (≈) assume the structure as drawn. *1 amine or outer side, *2 acyl side, *3 side chain or, on linkers, in order; H or OH if unused. Where a SMILES comes first, the peptide text is derived from it. Bridges are numbered along the chain shown (N, C = ends). Roman numbers before positions name the chains, in order. [ ]: non-standard residue; d: D form. Actinocin(9to1) = Cc1c2oc3c(C)ccc(C(=O)[*:1])c3nc-2c(C(=O)[*:2])c(N)c1=O; NMeV = CN[C@H](C(=O)O)C(C)C; Sar = CNCC(=O)O

The subject of experiment [1] is V79/S. The experiment is described as follows: Anti-cancer activity potentiating action, colony formation, V79/S parent cells (A-III). It is filed as cell-based, Chinese hamster. Conditions: for IC50: Cricetulus griseus. The method, then:
(§1) The anti-cancer activity potentiating action of the malate of formula (I) was examined using Chinese hamster cells (sensitive cell line V79/S and ADM-resistant cell line V79/ADM), human hepatoma cells (sensitive cell line PLC/S and colchicin-resistant cell line PLC/Col) and mouse leukemia cells (sensitive cell line L5178Y/S) and aclarubicin-resistant cell line L5178Y/ACR).
(§2) Of these tumor cells, the sensitive cells (400 cells) and the resistant cells (600 cells) were each incubated in 10 ml of Eagle's MEM medium containing 10% bovine serum for 24 hours, and then each of the test drugs indicated in Table 6 was added. Thereafter, the incubation was carried out for 9 days. The concentration (IC50 : micrograms/ml) of the test drug required to inhibit 50% of the colony formation (proliferation) of the tumor cells was calculated.
(§3) (A) Chinese hamster V79 cells
(§4) As anti-cancer agents, there were used adriamycin (ADM), aclarubicin (ACR), actinomycin D (ACD), 5-fluorouracil (5-FU), cytarabin (Ara-C), cisplatin (CDDP), methotrexate (MTX), mitomycin C (MMC), nimustine (ACNU), mitoxantrone, etoposide ([…]), vincristine (VCR), bleomycin (BLM) and peplomycin (PEP). For the sensitive cells, the anti-cancer agents were used in combination with 10 micrograms/ml of the malate of formula (I), and for the resistant cells, the anti-cancer agents were used in combination with the malate of formula (I) 3 micrograms/ml, 5 micrograms/ml, and 10 micrograms/ ml.

In experiment [2] the test system is V79/ADM. The experiment is described as follows: Anti-cancer activity potentiating action, colony formation, V79/ADM resistant cells (A-III). It counts as cell-based, Chinese hamster. Conditions: for IC50: Cricetulus griseus. The method, then: as §1, §2, §3, §4
In experiment [3] the test system is V79/ADM. Description: Colony formation (proliferation) inhibition, ADM-resistant Chinese hamster cells (A-I Part 1). It counts as cell-based. Here is the method:
(§5) Sensitive cell line V79/S and ADM-resistant cell line V79/ADM of the Chinese hamster were used, and sensitive cell line PLC/S and cholchicin-resistant cell line PLC/Col, as human hepatoma cells.
(§6) The sensitive cell lines (400 cells) or the resistant cell lines (600 cells) were each incubated for 24 hours in 10 ml of Eagle's MEM medium containing 10% bovine serum. Each of the drugs indicated in Table 1 below was dissolved in ethanol, and 50 microliters of the resulting solution was added to the medium. The incubation was further carried out for 9 days. The concentration of the drug which inhibits 50% of the colony formation (proliferation) of the tumor cells was calculated.
(§7) V79/S and V79/ADM were tested by using all of the drugs described above, but PLC/S and PLC/Col were tested by using only the malate of formula (I), adriamycin and peplomycin.
(§8) The concentrations (micrograms/ml) required to inhibit 50% of the proliferation of the tumor cells, expressed by IC50, are shown in Table 1.

The subject of experiment [4] is clinically isolated human cancer cells (lung adenocarcinoma, lung squamous cell carcinoma, osteosarcoma, ovarian carcinoma). Description: Anti-tumor activity on clinically isolated human cancer cells, morphological changes (A-I Part 2). It counts as cell-based.
Protocol: Lung adenocarcinoma, lung squamous cell carcinoma, osteosarcoma and ovarian carcinoma were selected as clinically isolated human cancer cells, and the anti-tumor activities of various drugs were examined. Specifically, various tumor tissues were individually cut to thin pieces by a razor, and by washing in saline by using a 1 mm mesh, the connective tissues were removed. The resulting solution was centrifuged at 1000 rpm for 1 minute to remove necrotizing substances. Washing with saline gave tumor cells.
They were incubated at 37° for 4 to 8 hours. Thereafter, pumping was carried out to disperse the tissue pieces. Then, centrifugation at 1000 rpm for 5 minutes, cell coating and Giemsa staining were performed. The anti-tumor activity of each drug was examined on the basis of observation of the morphological changes of the tumor cells under a microscope.
The experiment was conducted on two examples of each tumor cells (total 8 examples).
The test system of experiment [5] is V79/S. Description: Colony formation (proliferation) inhibition, sensitive Chinese hamster cells (A-I Part 1). It counts as cell-based. The method, then: as §5, §6, §7, §8
For experiment [6], the system named is P388 mouse leukemia cells. The experiment is described as follows: Life prolongation of BDF1 mice with P388 leukemia, combination with CPA. It counts as in vivo, mouse (male BDF1). Particulars: for Number of surviving animals: 30 days. Here is the method: Male BDF1 mice having a body weight of 20±2 g, 6 per group, were used. P388 mouse leukemia cells (one week after transplantation) as tumor cells were washed with 0.9% saline and suspended in saline so that the number of the cells reached 5×10^6 /m. The suspension was intraperitoneally administered to the mice at a rate of 0.2 ml (10^6 cells) per mouse.
Twenty-four hours after the transplantation of tumor cells, the malate of formula (I) and cyclophosphamide ([…]) were successively administered intraperitoneally once to the mice, and the life prolongation rate of the mice in each group was determined.
The malate of formula (I) was used after suspending it and Tween 80 at a ratio of 1:5 to saline, and this suspension was diluted with a solution of Tween 80 in the same concentration. CPA, on the other hand, was used as a solution in saline.
CPA (50 mg/kg and 100 mg/kg) and the malate of formula (I) (10 mg/kg and 20 mg/kg) were administered singly or in combination, and the life prolongation rate was determined.

Where [7] appears, read: read-out: IC50, anti-cancer agent alone.
The mark [8] stands for this setting: read-out: IC50 in combination with compound (I).
The mark [9] stands for this setting: V79/S, with compound (I) 10 μg/ml.
Where [10] appears, read: V79/ADM, with compound (I) 5 μg/ml.
Where [11] appears, read: V79/S, alone, Table 6, read-out: IC50, anti-cancer agent alone.
Setting [12] is: V79/S, with compound (I) 10 μg/ml, read-out: IC50 in combination with compound (I).
The mark [13] stands for this setting: V79/ADM, alone, Table 6, read-out: IC50, anti-cancer agent alone.

With `Cc1c2oc3c(C)ccc(C(=O)N[C@@H]4C(=O)N[C@H](C(C)C)C(=O)N5CCC[C@H]5C(=O)N(C)CC(=O)N(C)[C@@H](C(C)C)C(=O)O[C@@H]4C)c3nc-2c(C(=O)N[C@@H]2C(=O)N[C@H](C(C)C)C(=O)N3CCC[C@H]3C(=O)N(C)CC(=O)N(C)[C@@H](C(C)C)C(=O)O[C@@H]2C)c(N)c1=O` [ACD, actinomycin D] (I: T[dV]P[Sar][NMeV] / II: T[dV]P[Sar][NMeV]; ester I:1-I:C, II:1-II:C; linker I:N-II:N via Actinocin(9to1)), the IC50 amounted to 0.017 µg/mL in experiment [1] (setting [7]); 0.0032 µg/mL in experiment [1] (setting [8]); 0.28 µg/mL in experiment [2] (setting [7]); 0.0063 µg/mL in experiment [2] (setting [8]); 0.28 µg/mL (≈ 0.223 µM) in experiment [3] (Cricetulus griseus, 216 h); 0.017 µg/mL (≈ 0.0135 µM) in experiment [5] (Cricetulus griseus, 216 h). In addition, the Potentiation activity in experiment [1] (setting [9]) stood at 5.3 times; in experiment [2] (V79/ADM, with compound (I) 10 μg/ml), 44.4 times. Also, the “Efficacy ratio (rated significant by Fisher's test)” value in experiment [4] (0.01 μg/ml) is recorded as 0/8.

As to `Cc1ncc(CNC(=O)N(CCCl)N=O)c(N)n1` [ACNU, nimustine], the half-maximal inhibitory concentration (IC50) worked out at 7.6 µg/mL in experiment [1] (setting [7]), 5.4 µg/mL in experiment [1] (setting [8]), 10 µg/mL in experiment [2] (setting [7]) and 3.1 µg/mL in experiment [2] (setting [8]). Moreover, the figures for the Potentiation activity in experiment [1] (setting [9]) and in experiment [2] (setting [10]) were 1.4 times and 3.20 times, respectively. Besides, the “Efficacy ratio (rated significant by Fisher's test)” value in experiment [4] (2.0 μg/ml) is 3/8.

In the case of `Nc1ccn([C@@H]2O[C@H](CO)[C@@H](O)[C@@H]2O)c(=O)n1` [Ara-C, cytarabin], the 50% inhibitory concentration (IC50) is 76 nM in experiment [1] (setting [11]); 54 nM in experiment [1] (setting [12]); 220 nM in experiment [2] (setting [13]); 35 nM in experiment [2] (V79/ADM, with compound (I) 5 μg/ml, read-out: IC50 in combination with compound (I)). The Potentiation activity in experiment [1] (setting [9]) was found to be 1.4 times; in experiment [2] (setting [10]), 6.3 times.

For `[NH2][Pt]([NH2])([Cl])[Cl]` [CDDP, cisplatin], the “IC50, anti-cancer agent alone” value turned out to be 0.37 µg/mL in experiment [1] (V79/S, alone, Table 6) and 0.32 µg/mL in experiment [2] (V79/ADM, alone, Table 6). Moreover, the “IC50 in combination with compound (I)” value worked out at 0.27 µg/mL in experiment [1] (setting [9]) and 0.13 µg/mL in experiment [2] (setting [10]). Further, the Potentiation activity in experiment [1] (setting [9]) stood at 1.4 times; in experiment [2] (setting [10]), 2.5 times. Besides, the IC50 in experiment [3] (V79/ADM, 9 days, Table 1) worked out at 0.32 µg/mL; in experiment [5] (V79/S, 9 days, Table 1) it was 0.37 µg/mL. The “Efficacy ratio (rated significant by Fisher's test)” value in experiment [4] (0.5 μg/ml) is 4/8.

For the molecule `O=P1(N(CCCl)CCCl)NCCCO1` (centres unmarked) [CPA, cyclophosphamide], in experiment [6] (CPA 50 mg/kg i.p.), the “MST (medium survival time)” value worked out at 20.3, the T/C vs control amounted to 201% and the “Number of surviving animals” value is given as 0/6. Also, the “T/C vs CPA alone” value in experiment [6] (CPA 50 mg/kg i.p. (reference group)) is 100%. Further, in experiment [6] (CPA 100 mg/kg i.p.), the “MST (medium survival time)” value was determined as 24.0, the T/C vs control is 238% and the “Number of surviving animals” value is recorded as 1/6. In addition, the “T/C vs CPA alone” value in experiment [6] (CPA 100 mg/kg i.p. (reference group)) is reported as 100%.

With `O=P1(N(CCCl)CCCl)NCCCO1` (centres unmarked) [CPM], in experiment [4] (10 μg/ml), the “Efficacy ratio (rated significant by Fisher's test)” value is 3/8.

For `COC(COC(N)=O)C1=C(N2CC2)C(=O)C(C)=C(N2CC2)C1=O` (centres unmarked) [CQ, carboquone], the “Efficacy ratio (rated significant by Fisher's test)” value in experiment [4] (0.1 μg/ml) is recorded as 1/8.

On to `COc1cc([C@@H]2c3cc4c(cc3[C@@H](O[C@@H]3O[C@@H]5CO[C@@H](C)O[C@H]5[C@H](O)[C@H]3O)[C@H]3COC(=O)[C@H]23)OCO4)cc(OC)c1O` [Etoposide, etoposide], for which the half-inhibitory concentration (IC50) was 0.27 µg/mL in experiment [1] (setting [11]); 0.098 µg/mL in experiment [1] (setting [12]); more than 20 µg/mL in experiment [2] (setting [13]); 7.4 µg/mL in experiment [2] (V79/ADM, with compound (I) 3 μg/ml, read-out: IC50 in combination with compound (I)). Also, the Potentiation activity in experiment [1] (setting [9]) is reported as 2.8 times; in experiment [2] (V79/ADM, with compound (I) 3 μg/ml) it was 2.7 times.
